# Legend:
# [1] = tested on: IFN-α signaling pathway; assay: High-Throughput Integrated Transcriptional Screening (HITS), qPCR of IFN-α signature gene set in THP-1 cells; format: cell-based, human; conditions: compound 10 μM, 100 IU/ml IFN-α 4 h, a gene inhibited by more than 50% gets its maximum score, scores added, hit if greater than 50% of maximum
# Procedure: The unique gene expression signature of the IFN-α signaling pathway was established in THP-1 cells by comparing the gene profiles of the fully activated IFNα pathway to the basal gene expression. THP-1 cells were stimulated either with 100 IU/ml IFN-α, 100 IU/ml IFN-γ, or 10 ng/ml TNF-α to generate the activated pathway gene signatures.
# In one embodiment, the compounds of Table 1 were used to identify different mechanisms of action as identified from primary screening. If a gene is inhibited by more than 50% then it receives its maximum score (all or none type of scoring).
# THP-1 cells seeded at 8×10^5 cells/ml were treated with either compound (10 μM final concentration) or vehicle control (0.1% DMSO) for 30 minutes prior to a four hour stimulation with 100 IU/ml IFN-α or PBS. Plates were incubated at 37° C. in a humidified incubator. Cell lysis and RNA isolation were carried out according to the manufacturer's instructions (TurboCapture mRNA Kit, Qiagen Inc.). PCR primer pairs were designed for each of the genes identified through the global gene expression analysis using Primer 3 based method (see below for primer sequences). Each primer was evaluated for the efficient production of a single band of appropriate size in the presence of template RNA and the lack of distinct amplification products in a non-template control. Real time PCR reactions were carried out in SYBR green master mix (Quanta biosciences) on ABI9700 thermocyclers.
# We used the house keeping gene, GAPDH, as the normalization control for the IFN-α gene signature set to correct the overall variability in the qPCR based HITS process. The corrected profiles were then normalized to the basal gene expression levels determined by using the vehicle only treatments. We subtracted the vehicle only control gene value from the test compound gene profiles, gene per gene (see FIG. 1).
# [2] = tested on: CD80, CD123 and CD38 cell surface expression on monocytes; assay: IFN-α induced primary human monocyte activation/differentiation, cell surface markers by FACS; format: cell-based; conditions: 500 IU/ml IFN-α, 48 h, FACS (FIG. 5)
# Procedure: Freshly isolated monocytes from healthy donor were pre-incubated with compounds or vehicle control for 0.5 hour before stimulation with 500 IU/ml IFN-α. Cell surface expression of CD80, CD123 and CD38 was evaluated by FACS 48 h post-stimulation. Each bar represents the average+/−SEM of three independent experiments.
# Since deregulated differentiation of DCs induced by IFN-α may be a critical contributing factor in SLE^13, the impact of Apicidin 1a, IKK2 inhibitor IV, and JAK inhibitors in DC differentiation was examined. Human monocytes were stimulated with IFN-α and the expression of CD38 CD80 and CD123 differentiation markers was monitored^33.
# (§1) For monocyte differentiation assays, human monocytes were isolated from the blood of healthy donors according to manufactory's instructions (Miltenyi Biotec Inc; Auburn Calif.). 5×10^5 freshly prepared monocytes were pre-incubated with compounds or vehicle control for 30 min. Cells were then incubated in RPMI 1640 medium (Invitrogen, Carlsbad, Calif.) including 10% fetal calf serum (Invitrogen) supplemented with 500 IU/ml IFN-α 2a for 48 hr. Cell surface protein were stained with FITC-labeled anti-CD80, PE-labeled anti-CD123, PEcy7 labeled anti-CD38, APC cy7 labeled MHC class II (all BD, San Jose, Calif.) and analyzed on a FACS Calibur flow cytometer (BD). Cytokine and chemokine levels in supernatants from monocyte differentiation assays were measured using searchlight human cytokine array (Pierce Inc, Woburn, Mass.). (see FIG. 5)
# [3] = tested on: SLE-associated gene signature as induced by SLE serum; assay: SLE serum-induced IFN-α gene signature in freshly isolated monocytes (HITS qPCR); format: cell-based, human; conditions: for Percentage inhibition of the six most robustly induced IFN-α signature genes induced by SLE serum: 1 μm, monocytes stimulated with 50% SLE patient serum, mean of six genes vs vehicle control; for Upregulation of the six most robustly induced IFN-α signature gene set by 50% lupus serum (in words): freshly isolated monocytes, dose dependent (FIG. 4)
# From the text: RNA from lysed cells was examined by qPCR analysis in HITS assay. […] Each bar represents the average+/−SEM of three independent experiments using serum from different SLE patients.
# Stimulation of healthy donor PBMCs with serum isolated from SLE patients induces the up-regulation of IFN-α pathway-associated genes (Interfon-induced genes, IFIGs), such as MX1^31. Furthermore, expression of IFIG correlates with disease severity and organ involvement^31, 32. To further evaluate the role of small molecular inhibitors on the type I IFN gene signature, freshly isolated monocytes stimulated with 50% lupus serum were used in HITS assays. […] Importantly, these experiments were performed with SLE serum from patients with well characterized biochemical profiles.
# SLE patient and control serum were purchased from Bioreclamation (Hicksville, N.Y.). IFN-α 2a was obtained from PBL Biomedical laboratories (Piscataway, N.J.). Fresh PBMCs from healthy donor were prepared by Ficoll-hypaque fraction according to the manufactory's instruction. Cells were cultured at 2×10^5 cells/0.1 ml in 96-well flat-bottomed plates in culture medium.
# To determine the effect of compounds on gene expression, compounds and vehicle controls were pre-incubated with cells for 30 min at 37° C. before stimulation with 50% lupus serum or 100 IU/ml IFN-α 2a were incubated with PBMC. After 6 h stimulation, cells were lysed in Qiagen 2XTCL lysis buffer followed by HITS analysis (see FIG. 2).
# [4] = tested on: MCP-1; assay: IFN-α induced MCP-1 secretion from human monocytes; format: cell-based; conditions: 500 IU/ml IFN-α, 48 h (FIG. 6B)
# Procedure: (§2) Freshly isolated monocytes were treated with 500 IU/ml IFN-α with or without indicated compounds for 48 h. Supernatants were collected and MCP-1 and IP-10 levels were analyzed by Searchlight Inc. Percentage inhibition represents inhibition of the upregulation of chemokine induced by IFN-α compared to the vehicle control. Panel A: Effect of compounds on IP-10 secretion. Panel B: Effect of compounds on MCP-1 secretion. Each bar represents the average+/−SEM of three independent experiments. Panel C: IKK2 inhibitor IV blocked IFN-α induced IP-10 protein level in vivo. Female NZBW/F1 mice were treated with either antibody (i.p. injection 30 mg/kg) or IKK2 inhibitor (45 mg/kg BID) as described in materials and methods. Adenovirus-IFN-a (1×10^10 viral particles) was administrated i.v. at time 0. Samples were collected 6 h post-stimulation, IP-10 protein level was measured by ELISA. Data representative of two experiments.
# (§3) Multiple chemokines, including monocyte chemo-attractant protein-1 (MCP-1) and activated T cell chemokine interferon inducible protein 10 (IP-10) regulate leukocytes migration and infiltration into inflammated organs^34. Expression of MCP-1 and IP-10 are elevated in serum of SLE patients^34, 35 and in monocytes of healthy donors stimulated in vitro by IFN-α^36. Consequently, the effect of Apicidin 1a, IKK2 inhibitor IV, and JAK inhibitors in IP-10 and MCP-1 expression induced by IFN-α from human monocytes was examined.
# as §1, with “Cells were then incubated in RPMI 1640 medium (Invitrogen, Carlsbad, Calif.) including 10% fetal calf serum (Invitrogen) supplemented with 500 IU/ml IFN-α 2a for 48 hr.” left out, “(see FIG. 5)” left out
# [5] = tested on: IP-10; assay: IFN-α induced IP-10 secretion from human monocytes; format: cell-based; conditions: 500 IU/ml IFN-α, 48 h (FIG. 6A)
# Procedure: as §2, §3
# as §1, with “Cells were then incubated in RPMI 1640 medium (Invitrogen, Carlsbad, Calif.) including 10% fetal calf serum (Invitrogen) supplemented with 500 IU/ml IFN-α 2a for 48 hr.” left out, “(see FIG. 5)” left out
# [6] = tested on: freshly isolated monocytes; assay: Cytotoxicity at the concentration used in the SLE serum monocyte assay; format: cell-based, human; conditions: 1 μm
# [7] = tested on: HSV-1; assay: In vitro anti-viral assay, HSV-1/luciferase replication in Hep-2 cells with IFN-α; format: cell-based, Herpes Simplex Virus-1
# Procedure: Hep-2 cells were seeded at 2×10^4 cells/well in 96 well plates. Cells were infected with HVS1 at an Multiplicity Of Infection (MOI) of 5 for 1 h at 37° C. 24 hours post-seeding. Virus was aspirated, cells were washed, and 200 μl of medium with or without IFN-α or compound were added as indicated. After 48 h, cells were washed, lysed and luciferase activity were measured according to the manufacturer's instructions. […] Each bar represents the mean+/−SEM of triplicates from one experiment.
# Herpes Simplex Virus-1 (HSV-1) represents one of the major recurrent virus infections observed in SLE patients^37. Type-I and Type-II IFN signals are known to block HSV-1 dissemination in mice^38, and as a consequence, a therapeutic approach that neutralizes their combined activity may constitute an important safety concern. Therefore, the impact of Apicidin 1a, IKK2 inhibitor IV, and JAK inhibitors on HSV-1 replication regulated by IFN-α in Hep-2 cells was examined in vitro. HSV-1/luciferase was used to infect Hep-2 cells, and viral replication was monitored by luciferase expression.
# Hep-2 cells were propagated in MEM (Invitrogen) with 10% fetal bovine serum. HSV-1 recombination virus with both firefly and Renilla luciferase genes in a divergent orientation from a single multiple cloning site were a gift from Dr. Leib's lab. Hep-2 cells were seeded at 2×10^4 cells/well in 96 well plate, 24 h post seeding, cells were infected with virus at an MOI of 5, after absorption for 1 h at 37° C., free viral particles were removed by aspiration, cells were washed, and 200 μl medium containing IFN-α with or without test compounds. After 48 h incubation, cells were washed and lysed in 20 μl of Passive Lysis Buffer (Promega Inc; Madison, Wis.) frozen, thawed, and assayed for firefly and Renilla luciferase activity using the Dual Luciferase Assay kit (Promega).
# [8] = tested on: IP-10; assay: IFN-α induced chemokine release in vivo (adenovirus IFN-α5, serum IP-10 ELISA); set-up: species or system Female NZBW/F1 mice
# Procedure: as §2
# Next, the effect of IKK-2 inhibitor IV in IP-10 and MCP-1 expression was examined in vivo. To induce IP-10 and MCP-1 expression, mice were infected with adenovirus encoding IFN-α5. As a result, IP-10 but not MCP-1 levels were detected in serum (data not shown). […]
# Female NZBW/F1 mice (Jackson Laboratories, Bar Harbor, Me.) were housed in pathogen-free conditions with access to food and water. […] Serum levels of IP10 were assessed by ELISA (R&D Systems, Minneapolis, Minn.). […]
Molecule,HTS Score [1],CD38 expression [2],CD80 expression [2],CD123 expression [2],Percentage inhibition of the six most robustly induced IFN-α signature genes induced by SLE serum [3] [%],Upregulation of the six most robustly induced IFN-α signature gene set by 50% lupus serum (in words) [3],MCP-1 expression induced by IFN-α [4],Expression of IP-10 induced by IFN-α [5],Cytotoxicity [6],"Effect on anti-viral effects of IFN-α at low dose ([7]; HSV-1, 0.1 μm (FIG. 7C))","IFN-α dependent anti-viral activity at higher dose ([7]; HSV-1, higher dose where MCP-1 production is inhibited (FIG. 7C))","IFN-α induced IP-10 protein level in vivo (in words) ([8]; Female NZBW/F1 mice, 45 mg/kg BID, 6 h post-stimulation, ELISA (FIG. 6C))","Inhibition of levels of serum IP-10 ([8]; mice infected with adenovirus encoding IFN-α5, 6 h post-stimulation, IKK2 inhibitor 45 mg/kg BID, antibody i.p. 30 mg/kg) [%]","Effect on IFN-α dependent anti-viral activity (HSV-1 replication) ([7]; MOI 5, 48 h, even at higher doses (FIG. 7A, 7B))"
Oxamflatin [Compound 1],1,–,–,–,–,–,–,–,–,–,–,–,–,–
"O=C(CCCCCN1C(=O)c2cccc3cccc(c23)C1=O)NO [Compound 3, scriptaid]",0.88,–,–,–,–,–,–,–,–,–,–,–,–,–
"CC(C)(C)c1nc2c3ccc(F)cc3c3c(=O)[nH]ccc3c2[nH]1 [Compound 7, JAK Inhibitor I]",0.9,dose-dependent inhibition,dose-dependent inhibition,dose-dependent inhibition,60,blocked the upregulation,restricted to the highest dose,block the expression of IP-10,did not exhibit cytotoxicity,–,–,–,–,–
"CCC(=O)CCCCC[C@@H]1NC(=O)[C@H]2CCCCN2C(=O)C([C@@H](C)CC)NC(=O)[C@H](Cc2cn(OC)c3ccccc23)NC1=O (stereo partly drawn) [Compound 2, Apicidin]",0.89,limited to the highest dose of 1 μM,blocks CD80 expression,limited to the highest dose of 1 μM,80,blocked the upregulation,totally neutralizes MCP-1 expression,no neutralization,did not exhibit cytotoxicity,inhibited anti-viral effects of IFN-α,abolished or viral growth was actually promoted,–,–,–
"CC(/C=C/C(=O)NO)=C\[C@@H](C)C(=O)c1ccc(N(C)C)cc1 [Compound 4, Trichostatin A]",1,–,–,–,–,–,–,–,–,–,–,–,–,–
"C=CC(=O)C1=CC2C=CC=CC2C=C1 (stereo not drawn) [Compound 8, JAK3 Inhibitor V]",0.79,–,–,–,–,–,–,–,–,–,–,–,–,–
"NC(=O)Nc1sc(-c2ccc(F)cc2)cc1C(N)=O [Compound 5, IKK-2 Inhibitor IV]",0.95,dose-dependent inhibition,dose-dependent inhibition,dose-dependent inhibition,77,blocked the upregulation,restricted to the highest dose,block the expression of IP-10,did not exhibit cytotoxicity,–,–,blocked,98,retained the majority of IFN-α dependent anti-viral activity

# Reference: patent publication US20100093611A1, “COMPOUNDS AND METHODS FOR TREATING OR PREVENTING AUTOIMMUNE DISEASES” (priority 2007, published 2010)
